Here are results for four substances from article PMC9405102, “Targeted Modification and Structure-Activity Study of GL-29, an Analogue of the Antimicrobial Peptide Palustrin-2ISb” (Antibiotics, 2022).

The test system of data set [1] is Staphylococcus aureus (S. aureus). Set-up: method as in PMID 21911019. The note with it: cited from earlier work.
In data set [2] the test system is methicillin-resistant S. aureus (MRSA). More on the design: method as in PMID 21911019. The note with it: cited from earlier work.
For data set [3], the system named is Escherichia coli (E. coli). Set-up: method as in PMID 21911019. The note with it: cited from earlier work.
Data set [4] deals with C. albicans. More on the design: method as in PMID 21911019. To be noted: at 100 μM; cited from earlier work.
Data set [5] relates to E. coli (ATCC BAA-2340). In kind it is cell-based, Escherichia coli. The note with it: ATCC BAA-2340. The method, then: (§1) The antimicrobial activity of the peptides was determined through the minimum inhibitory concentrations (MICs) and the minimum bactericidal concentration (MBCs) using the broth-dilution method in a 96-well plate, as described in the previous study. Six bacteria, including the Gram-positive bacteria, S. aureus (ATCC CRM 6538), MRSA (ATCC CRM 12493) and E. faecalis (NCTC 12697), the Gram-negative bacteria, E. coli (ATCC CRM 8739), K. pneumoniae (ATCC CRM 43816) and P. aeruginosa (ATCC CRM 9027), the yeast, C. albicans (ATCC CRM 10231) and clinical isolates, S. aureus (B042 V2E1 A), MRSA (B038 V1S1 A), E. coli (ATCC BAA-2340) and K. pneumoniae (ATCC BAA-1705) were used in these assays to evaluate the antimicrobial potency of the two peptides by determining their MICs and MBCs. All bacteria were cultured in MHB and the yeast, C. albicans was cultured in YPD broth overnight. Then, the microorganisms were sub-cultured and diluted to the final concentration of 2 × 10^5 CFU/mL to 5 × 10^5 CFU/mL. The Norfloxacin and amphotericin B were used as positive controls for the bacteria and yeast, respectively. The assay was repeated three times, with five replicates at each time.

For data set [6], the system named is E. coli (ATCC CRM 8739). In kind it is cell-based, Escherichia coli. To be noted: ATCC CRM 8739. The method, then: as §1
Data set [7] has as its system E. faecalis (NCTC 12697). The format is cell-based, Enterococcus faecalis. The note with it: NCTC 12697, 24 h. The method, then:
(§2) The MBIC and MBEC assays were performed to measure the inhibition and eradication of bacterial biofilm in the presence of different concentrations of peptides. Gram-positive bacteria were inoculated in Luria–Bertani (LB) broth at 37 °C overnight whereas Gram-negative bacteria were inoculated in tryptic soy broth (TSB), and then sub-cultured until reaching the logarithmic growth phase by measuring the OD values at a wavelength of 550nm. For the MBIC assay, 99 µL of diluted bacterial suspension (5 × 10^5 CFU/mL) was mixed with 1 µL of prepared peptide solutions in the wells of a round-bottomed 96-well plate, achieving the final concentrations from 512 to 1 µM, and then incubated at 37 °C for 24 h in a shaking incubator at 200 revolutions per minute (rpm). After this, the plate was washed twice by PBS and fixed with methanol for 30 min. For MBEC assay, 100 µL of diluted bacterial suspension (5 × 10^5 CFU/mL) was seeded into a round-bottomed 96-well plate and incubated at 37 °C for 24 h in a shaking incubator at 200 rpm to obtain mature biofilm. After this, plates were washed twice by PBS and incubated with different concentrations of peptide solution from 512 to 1 µM at 37 °C for 24 h. Afterwards, the plate was washed twice with PBS and fixed with methanol for 30 min. Then, both MBIC and MBEC plates were stained by 130 μL of 0.1% (g/v) crystal violet solutions for 30 min and washed with PBS until no apparent staining was observed. Evaporating crystal violet stains were dissolved by 33% (v/v) acetic acid, and the absorbance values were measured by a Synergy HT Microplate Reader (BioTek, Minneapolis, MN, USA) set to 595 nm. The minimum concentration that inhibited the formation of biofilm was defined when compared to the negative control group, as the MBIC. The minimum concentration that eradicated the biofilm was defined, when compared to the negative control group, as the MBEC. The biofilm assays were performed in triplicate.

In data set [8] the test system is P. aeruginosa (ATCC CRM 9027). The format is cell-based, Pseudomonas aeruginosa. The note with it: ATCC CRM 9027, 24 h. The method, then:
as §2

In data set [9] the test system is horse erythrocytes. In kind it is cell-based. The method, then: The haemolysis assays were performed by incubating prewashed erythrocyte suspension obtained from fresh defibrinated horse blood (TCS Biosciences Ltd., Buckingham, UK) with a range of peptides at final concentrations from 512 to 1 μM, for 2 h at 37 °C. The red cell suspensions were washed with phosphate-buffered saline (PBS) until the supernatant was clear and then diluted with PBS to form a 2% cell suspension. Peptides were 2-fold diluted by the 2% cell suspension to reach the final concentration range from 512 to 1 μM. The haemolysis of the cell suspensions with either 1% (v/v) Triton X-100 or PBS, were considered as positive controls and negative controls, respectively. After incubation, the extent of haemolysis was determined by measuring the absorbance of the supernatant from each sample at 570 nm with a Synergy HT plate reader (BioTek, USA).
Data were analysed using Prism (Version 8.2.1; GraphPad Software, Inc, San Diego, CA, USA). Error bars in the graphs represented standard errors of means (SEM) of nine repeats from three independent tests. The statistical significance was calculated using two-way ANOVA and is indicated as ns (non-significant difference), * (p < 0.05), ** (p < 0.01), *** (p < 0.001), ****(p < 0.0001). The HC10, HC50 and IC50 values were calculated using the online tool AAT Bioquest (https://www.aatbio.com/index.html, accessed on 6 May 2022).

Data set [10] relates to S. aureus (ATCC CRM 6538). In kind it is cell-based, Staphylococcus aureus. To be noted: ATCC CRM 6538. The method, then:
as §1

The test system of data set [11] is S. aureus (B042 V2E1 A). The format is cell-based, Staphylococcus aureus. The note with it: B042 V2E1 A. The method, then: as §1
In data set [12] the test system is S. aureus (ATCC CRM 6538). The format is cell-based, Staphylococcus aureus. To be noted: ATCC CRM 6538, 24 h. The method, then: as §2
Data set [13] has as its system MRSA (ATCC CRM 12493). In kind it is cell-based, methicillin-resistant S. aureus. The note with it: ATCC CRM 12493, 24 h. Here is the method: as §2
The test system of data set [14] is C. albicans (ATCC CRM 10231). In kind it is cell-based, Candida albicans. The note with it: ATCC CRM 10231. The method, then:
as §1

Data set [15] deals with P. aeruginosa (ATCC CRM 9027). In kind it is cell-based, Pseudomonas aeruginosa. To be noted: ATCC CRM 9027. Here is the method:
as §1

Data set [16] concerns E. faecalis (NCTC 12697). In kind it is cell-based, Enterococcus faecalis. To be noted: NCTC 12697. Here is the method:
as §1

The subject of data set [17] is K. pneumoniae (ATCC CRM 43816). In kind it is cell-based, Klebsiella pneumoniae. The note with it: ATCC CRM 43816. The method, then: as §1
In data set [18] the test system is K. pneumoniae (ATCC BAA-1705). In kind it is cell-based, Klebsiella pneumoniae. To be noted: ATCC BAA-1705. Here is the method:
as §1

For data set [19], the system named is MRSA (B038 V1S1 A). The format is cell-based, methicillin-resistant S. aureus. To be noted: B038 V1S1 A. Here is the method: as §1
Data set [20] relates to MRSA (ATCC CRM 12493). In kind it is cell-based, methicillin-resistant S. aureus. To be noted: ATCC CRM 12493. Here is the method: as §1
Data set [21] concerns E. coli (ATCC CRM 8739). In kind it is cell-based, Escherichia coli. The note with it: ATCC CRM 8739, 24 h. The method, then: as §2
Data set [22] concerns K. pneumoniae (ATCC CRM 43816). In kind it is cell-based, Klebsiella pneumoniae. The note with it: ATCC CRM 43816, 24 h. The method, then: as §2
For data set [23], the system named is Gram-positive and Gram-negative bacteria. More on the design: method as in PMID 21193000. To be noted: cited from earlier work.

What is called MIC is the smallest concentration in the dilution series that meets the test's criterion for growth inhibition.

Read-outs that look alike come from different tables or passages of the source. Where no end group is shown, it is not given here.

Consider “GLWNSIKIAGKKLFVNVLDKIRCKVAGGCKTSPDVE [palustrin-2ISb, parent antimicrobial peptide of 36 residues isolated from Odorrana ishikawae]”, for which the MIC in data set [1] is 6.3 µM; in data set [2] it was 100 µM; in data set [3] it was 6.3 µM. In addition, in data set [4], the “activity against C. albicans” value is recorded as “no activity”.
For FVNVLDKI-NH2 [FV-8, FVNVLDKI-NH2], the MBC in data set [5], in [6], in [10], in data set [11], in [14] and in data set [15] was more than 512 µM each time. Besides, the MBC in data set [16], in data set [17], in [18], in data set [19] and in data set [20] was more than 512 µM throughout. Moreover, the MIC in data set [5], in data set [6], in [10], in data set [11], in data set [14] and in data set [15] was more than 512 µM in each case. Moreover, the MIC in data set [16], in [17], in data set [18], in data set [19] and in [20] was more than 512 µM each time. In addition, the MBEC in data set [7], in data set [8], in data set [12], in data set [13], in data set [21] and in [22] was more than 512 µM each time. In addition, the MBIC in data set [7], in [8], in [12], in data set [13], in data set [21] and in data set [22] was more than 512 µM throughout. Also, the HC10 turned out to be 504.21 µM in data set [9] and 583.6 µM in [9] (red cells of horse, 2 h).
With FVNVLDKIR-NH2 [FV-9, FVNVLDKIR-NH2], the MBC in [5], in data set [6], in [10], in [11], in [14] and in data set [15] was more than 512 µM in each case. Also, the MBC in data set [16], in data set [17], in [18], in data set [19] and in data set [20] was more than 512 µM each time. The MIC in data set [5], in data set [6], in data set [10], in [11], in data set [14] and in [15] was more than 512 µM each time. In addition, the MIC in data set [16], in data set [17], in data set [18], in data set [19] and in data set [20] was more than 512 µM each time. In addition, the MBEC in data set [7], in data set [8], in [12], in data set [13], in data set [21] and in data set [22] was more than 512 µM each time. The MBIC in [7], in data set [8], in [12], in data set [13], in data set [21] and in data set [22] was more than 512 µM in each case. The HC10 in data set [9] was found to be 504.21 µM; in [9] (red cells of horse, 2 h) it was 504.2 µM.
For the substance “GKKLFVNVLDKIRCKVAGGC [palustrin-2ISb-des-C7-des-N9, literature analogue with one helical part of Pa2ISb-des-C7]”, the “activity against Gram-positive and Gram-negative bacteria” value in [23] is reported as “little activity”.
